Results taken from ChEMBL document CHEMBL1165975, “Synthesis, molecular modeling and biological evaluation of dithiocarbamates as novel antitubulin agents” (Bioorg Med Chem, 2010).

Assays:
[1] = Inhibition of bovine brain tubulin polymerization after 20 mins; design: species or system Bos taurus
MCF7 [2] = assay: Cytotoxicity against human MCF7 cells after 48 hrs by MTT assay; format: functional, cell-based; conditions: MCF7, 48 h
MCF7 [3] = assay: Cell cycle arrest in human MCF7 cells assessed as accumulation at G2/M phase at 25 nM after 24 hrs by flow cytometry; format: functional
MCF7 [4] = assay: Cell cycle arrest in human MCF7 cells assessed as accumulation at G1 phase at 25 nM after 24 hrs by flow cytometry; format: functional
MCF7 [5] = assay: Cell cycle arrest in human MCF7 cells assessed as accumulation at S phase at 25 nM after 24 hrs by flow cytometry; format: functional
MCF7 [6] = assay: Cell cycle arrest in human MCF7 cells assessed as accumulation at G1 phase at 250 nM after 24 hrs by flow cytometry; format: functional
MCF7 [7] = assay: Cell cycle arrest in human MCF7 cells assessed as accumulation at S phase at 250 nM after 24 hrs by flow cytometry; format: functional
MCF7 [8] = assay: Cell cycle arrest in human MCF7 cells assessed as accumulation at G2/M phase at 250 nM after 24 hrs by flow cytometry; format: functional

Row | Structure (SMILES) | IC50 [1] | IC50 (MCF7 [2]) | also measured
1 | CCN(CC)C(=S)SC(CC(=O)c1ccccc1)c1ccc(C)cc1 (configuration not stated) | 220 µM | 20 µM | 
2 | CCN(CC)C(=S)SC(CC(=O)c1ccccc1)c1ccccc1OC (configuration not stated) | 150 µM | 16 µM | 
3 | CCN(CC)C(=S)SC(CC(=O)c1ccccc1)c1ccccc1Cl (configuration not stated) | 52 µM | 4.5 µM | 
4 | CCN(CC)C(=S)SC(CC(=O)c1ccc(OC)cc1)c1ccc(OC)cc1 (configuration not stated) | 84 µM | 0.8 µM | 
5 | CCN(CC)C(=S)SC(CC(=O)c1ccccc1)c1ccc(OC)cc1 (configuration not stated) | 45 µM | 4.6 µM | 
6 | COc1ccc(/C=C\c2cc(OC)c(OC)c(OC)c2)cc1O [COMBRETASTATIN A4] | 2.2 µM |  | 
7 | COc1cc2c(c(OC)c1OC)-c1ccc(OC)c(=O)cc1[C@@H](NC(C)=O)CC2 [COLCHICINE] | 3.2 µM | 0.017 µM | Activity (MCF7 [3]): 32.28%; Activity (MCF7 [4]): 24.31%; Activity (MCF7 [5]): 15.96%
8 | CCN(CC)C(=S)SC(CC(=O)c1ccc(Br)cc1)c1ccccc1 (configuration not stated) | 65 µM | 5 µM | 
9 | CCN(CC)C(=S)SC(CC(=O)c1ccc(Cl)c(Cl)c1)c1ccccc1 (configuration not stated) | 60 µM | 4.5 µM | 
10 | CCN(CC)C(=S)SC(CC(=O)c1ccc(Br)cc1)c1ccc(OC)cc1 (configuration not stated) | 52 µM | 5 µM | 
11 | CCN(CC)C(=S)SC(CC(=O)c1ccc(OC)cc1)c1ccccc1 (configuration not stated) | 62 µM | 4.5 µM | 
12 | CCN(CC)C(=S)SC(CC(=O)c1ccccc1)c1ccc(Br)cc1 (configuration not stated) | 12 µM | 0.08 µM | 
13 | CCN(CC)C(=S)SC(CC(=O)c1ccccc1)c1ccccc1 (configuration not stated) | 130 µM | 17 µM | 
14 | CCN(CC)C(=S)SC(CC(=O)c1ccc(OC)cc1)c1ccc(Cl)cc1 (configuration not stated) | 140 µM | 16 µM | 
15 | CCN(CC)C(=S)SC(CC(=O)c1ccc(OC)cc1)c1ccc(C)cc1 (configuration not stated) | 180 µM | 17 µM | 
16 | CCN(CC)C(=S)SC(CC(=O)c1ccc(Br)cc1)c1ccc(F)cc1 (configuration not stated) | 18 µM | 1 µM | 
17 | CCN(CC)C(=S)SC(CC(=O)c1ccccc1)c1ccc(Cl)cc1 (configuration not stated) | 15 µM | 0.12 µM | 
18 | CCN(CC)C(=S)SC(CC(=O)c1ccc(Cl)cc1)c1ccccc1 (configuration not stated) | 6.8 µM | 0.04 µM | Activity (MCF7 [3]): 19.99%; Activity (MCF7 [6]): 12.86%; Activity (MCF7 [4]): 50.86%; Activity (MCF7 [7]): 12.22%; Activity (MCF7 [5]): 16.28%; Activity (MCF7 [8]): 39.54%
19 | CCN(CC)C(=S)SC(CC(=O)c1ccccc1)c1ccc(F)cc1 (configuration not stated) | 80 µM | 0.7 µM | 
20 | CCN(CC)C(=S)SC(CC(=O)c1ccccc1)c1cccc([N+](=O)[O-])c1 (configuration not stated) | 90 µM | 9 µM | 
21 | CCN(CC)C(=S)SC(CC(C)=O)c1ccccc1 (configuration not stated) | 250 µM | 23 µM | 
22 | CCN(CC)C(=S)SC(CC(=O)c1ccc(OC)cc1)c1ccccc1Cl (configuration not stated) | 10 µM | 0.07 µM | 
